Data taken from patent publication US8609682B2 (priority 2008, dated 2013).

Columns and labels:
[1] = biological target: kappa/delta opioid receptors (Mus musculus, UniProt P32300+P33534)
[2] = biological target: mu/delta opioid receptors (Mus musculus, UniProt P32300+P42866); conditions: Mu/delta cells
delta opioid receptor = delta opioid receptor (Mus musculus, UniProt P32300); conditions: Delta cells
mice [3] = assay: Radiant heat tail flick antinociception; type: in vivo, mouse
mice [4] = conditions: i.c.v. morphine-infused mice; cited from earlier work
mice [5] = conditions: chronic i.c.v. morphine; cited from earlier work
mice [6] = assay: Conditioned place preference (CPP)
[7] = biological target: T1, mu/kappa opioid heterodimers (Mus musculus, UniProt P33534+P42866); type: cell-based, murine
T1 construct: expressed in transfected cells

mu opioid receptor = biological target: T2, mu opioid receptor (Mus musculus, UniProt P42866); assay: Ca2+ release, HEK-293 mu cells; type: cell-based, murine
T2 construct: expressed in transfected cells
T2 sequence (P42866 whole entry): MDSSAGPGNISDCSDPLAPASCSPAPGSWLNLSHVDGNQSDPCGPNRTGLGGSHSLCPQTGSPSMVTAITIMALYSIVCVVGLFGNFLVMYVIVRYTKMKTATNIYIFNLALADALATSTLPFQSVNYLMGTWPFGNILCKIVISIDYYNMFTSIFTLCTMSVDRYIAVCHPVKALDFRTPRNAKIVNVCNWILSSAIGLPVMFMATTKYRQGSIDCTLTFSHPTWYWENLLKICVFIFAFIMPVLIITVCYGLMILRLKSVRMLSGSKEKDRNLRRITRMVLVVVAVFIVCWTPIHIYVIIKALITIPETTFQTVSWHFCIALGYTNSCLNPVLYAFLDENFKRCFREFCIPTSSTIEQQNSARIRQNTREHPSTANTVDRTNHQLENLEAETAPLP

Chain of mu/delta opioid receptors (P32300 whole entry): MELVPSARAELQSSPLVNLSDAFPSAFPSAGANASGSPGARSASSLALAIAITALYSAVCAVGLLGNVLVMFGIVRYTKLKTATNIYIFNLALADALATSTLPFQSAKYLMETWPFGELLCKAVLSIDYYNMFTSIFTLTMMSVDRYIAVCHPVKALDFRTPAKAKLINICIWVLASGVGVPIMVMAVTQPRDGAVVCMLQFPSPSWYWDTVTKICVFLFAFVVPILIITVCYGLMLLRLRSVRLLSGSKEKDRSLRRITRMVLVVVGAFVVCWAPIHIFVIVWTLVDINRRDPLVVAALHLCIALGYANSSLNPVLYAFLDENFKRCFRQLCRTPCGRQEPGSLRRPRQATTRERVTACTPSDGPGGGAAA
Chain of mu/delta opioid receptors (P42866 whole entry): as the sequence (P42866 whole entry) above
Chain of delta opioid receptor (P32300 whole entry): as the sequence (P32300 whole entry) above
Chain of kappa/delta opioid receptors (P33534 whole entry): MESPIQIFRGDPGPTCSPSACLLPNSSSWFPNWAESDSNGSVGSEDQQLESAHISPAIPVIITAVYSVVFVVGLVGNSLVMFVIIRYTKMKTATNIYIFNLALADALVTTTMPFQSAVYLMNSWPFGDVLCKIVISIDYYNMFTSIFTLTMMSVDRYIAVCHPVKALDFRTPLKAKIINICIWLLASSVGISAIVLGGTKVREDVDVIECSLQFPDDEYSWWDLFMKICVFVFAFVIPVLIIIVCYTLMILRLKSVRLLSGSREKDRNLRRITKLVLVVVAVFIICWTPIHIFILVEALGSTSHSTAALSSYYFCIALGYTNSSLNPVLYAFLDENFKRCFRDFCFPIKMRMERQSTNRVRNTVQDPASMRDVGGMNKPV
Chain of kappa/delta opioid receptors (P32300 whole entry): as the sequence (P32300 whole entry) above
T1 sequence (P42866 whole entry): as the sequence (P42866 whole entry) above
T1 sequence (P33534 whole entry): as the sequence (P33534 whole entry) above

## DPDPE
[1]
  AUCpeak (RFU X seconds), Ca2+ release: 10153 ± 1479
[2]
  AUCpeak (RFU X seconds), Ca2+ release: 10504 ± 969 RFU X seconds
Delta opioid receptor
  AUCpeak (RFU X seconds), Ca2+ release: 8319 ± 1117 RFU X seconds

## CN1CC[C@]23c4c5ccc(O)c4O[C@H]2[C@@H](O)C=C[C@H]3[C@H]1C5 [morphine, reference compound]
Mice [3]; i.v., preliminary studies, ICR mice
  time of peak antinociception: 15 min
Mice [3]; i.v., tail flick
  ED50 (95% CI): 420 (378-469) nmol
Mice [4]
  naloxone-induced withdrawal jumping, previous studies: 100 jumps in 10 min
Mice [5]
  development of tolerance, previous studies, same protocol: 6 fold
Mice [6]; 1200 nmol/kg
  place preference: strong place preference
Mice [6]; morphine 1200 nmol/kg plus naloxone 300 nmol/kg
  place preference with naloxone: can be blocked by naloxone

## Oc1ccc2c3c1O[C@H]1c4[nH]c5ccccc5c4C[C@@]4(O)[C@@H](C2)N(CC2CC2)CC[C@]314 [NTI, naltrindole, reference compound]
Mice [3]
  peak time of antagonist effect: 20 min

## Cys2-Tyr3-Orn5-Pen7-amide [CTOP, reference compound]
Mice [3]
  peak time of antagonist effect: 20 min

## C[C@@H](NC(=O)[C@@H](N)Cc1ccc(O)cc1)C(=O)NCC(=O)N(C)[C@@H](Cc1ccccc1)C(=O)NCCO [DAMGO, reference compound]
[7]
  AUCpeak (RFU X seconds), Ca2+ release: 5562 ± 668
Mu opioid receptor
  AUCpeak (RFU X seconds), Ca2+ release: 9989 ± 702 RFU X seconds
[2]
  AUCpeak (RFU X seconds), Ca2+ release: 12054 ± 1281 RFU X seconds

## Oc1ccc2c3c1O[C@H]1c4[nH]c5c(c4C[C@@]4(O)[C@@H](C2)N(CC2CC2)CC[C@]314)C[C@@]1(O)[C@H]2Cc3ccc(O)c4c3[C@@]1(CCN2CC1CC1)[C@H]5O4 [norBNI, norbinaltorphimine, reference compound]
Mice [3]
  peak time of antagonist effect: 20 min
